From US9938273B2 (Plexxikon Inc., priority 2015, dated 2018)

How the values were obtained:
FLT3-D835Y = target: T1, FLT3-D835Y (Homo sapiens, UniProt P36888, D835Y); assay: AlphaScreen kinase assay with recombinant enzyme, FLT3-D835Y; type: biochemical; conditions: 8pt, GMean
T1 construct: purchased Invitrogen PV3967
T1 sequence (P36888 27-993 D835Y): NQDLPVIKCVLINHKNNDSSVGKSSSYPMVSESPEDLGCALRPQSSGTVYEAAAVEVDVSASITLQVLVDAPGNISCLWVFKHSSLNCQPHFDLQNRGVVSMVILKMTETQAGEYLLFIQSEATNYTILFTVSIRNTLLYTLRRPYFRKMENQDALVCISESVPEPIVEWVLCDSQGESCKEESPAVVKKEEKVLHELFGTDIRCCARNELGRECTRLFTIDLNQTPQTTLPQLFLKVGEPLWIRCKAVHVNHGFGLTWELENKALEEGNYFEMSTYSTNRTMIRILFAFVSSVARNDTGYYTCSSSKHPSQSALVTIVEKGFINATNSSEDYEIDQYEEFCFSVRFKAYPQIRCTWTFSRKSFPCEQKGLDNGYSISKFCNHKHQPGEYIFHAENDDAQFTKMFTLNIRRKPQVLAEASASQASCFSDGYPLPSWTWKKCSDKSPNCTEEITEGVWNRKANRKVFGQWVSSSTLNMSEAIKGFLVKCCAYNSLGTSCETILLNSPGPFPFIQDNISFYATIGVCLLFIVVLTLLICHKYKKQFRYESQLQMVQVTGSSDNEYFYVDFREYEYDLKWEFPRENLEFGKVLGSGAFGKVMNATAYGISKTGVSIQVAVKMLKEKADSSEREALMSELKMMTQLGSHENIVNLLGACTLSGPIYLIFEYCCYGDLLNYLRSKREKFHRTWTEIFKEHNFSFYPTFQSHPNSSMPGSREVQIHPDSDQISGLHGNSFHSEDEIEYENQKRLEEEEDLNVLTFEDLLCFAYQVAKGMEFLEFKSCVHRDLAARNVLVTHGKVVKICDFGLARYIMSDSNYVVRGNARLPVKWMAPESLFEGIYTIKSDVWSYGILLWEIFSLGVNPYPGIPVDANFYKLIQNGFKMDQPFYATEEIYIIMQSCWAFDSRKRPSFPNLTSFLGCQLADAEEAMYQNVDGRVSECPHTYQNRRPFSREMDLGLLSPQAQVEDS
Summary of the method: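 Recombinant kinase phosphorylates biotinylated poly(Glu4-Tyr) peptide (30 nM final); streptavidin donor and anti-phosphotyrosine PY20 acceptor beads (10 μg/mL final) give a 580 nm proximity signal on 680 nm excitation. IC50 determinations used a final concentration of 10 μM for FLT3-D835Y/FLT3-ITD and 100 μM for c-KIT.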

[1] = tested on: MOLM-14 F691L cells, FLT3 ITD and FLT3 F691L; assay: Cell proliferation assay (CellTiter-Glo), MOLM-14 F691L; type: cell-based; conditions: Homo sapiens, 72 h, 3d-Growth, GMean
Source text: The FLT3 inhibitors may be assessed using the MOLM-14, Acute Myeloid Leukemia cell line that endogenously expresses FLT3 ITD or derivatives of the human FLT3 AML cell line which acquired the D835Y (activation loop) of F691L (gatekeeper) mutation after selection in escalating doses of the FLT3 Inhibitor AC220. FLT3 inhibitors may also be assessed using cells that are engineered to express mutant FLT3. For engineered cells, murine Ba/F3 cells were transfected with full-length FLT3 ITD/D835Y mutations. The parental BA/F3 cells are dependent upon Interleukin-3 (IL-3) for survival, and introduction of the FLT3 constructs rendered these cells dependent upon FLT3 kinase activity when cultured in the absences of IL-3. Engineered BA/F3 cell growth assays can be performed in either the […] of IL-3, to assess the compound inhibition of FLT3 or to detect the presence of off-target activity, respectively. Inhibitors of FLT3 kinase activity reduce or eliminate the FLT3 oncogenic signaling, resulting in reduced cell proliferation. This inhibition is measured as a function of compound concentration to asses IC50 values.
Cell lines used in proliferation assays are as follows in Table 3:
Cells were seeded at 1×10^4 cells per well of a 96 well cell culture plate in 50 μl of cell culture medium. Compounds were dissolved in DMSO, typically at a concentration of 0.5 mM and were serially diluted 1:3 for a total of eight points and added to the cells to final concentrations of […], 0.0041, 0.0014 and 0.00046 μM in 100 μl cell culture medium (final concentration 0.2% DMSO). […] The cells were incubated at 37° C., 5% CO2 for three days. CellTiter-Glo Buffer (Promega Cell Viability Assay catalog #G7573) and substrate were equilibrated to room temperature, and enzyme/substrate Recombinant Firefly Luciferase/Beetle Luciferin was reconstituted. The cell plates were equilibrated to room temperature for 30 minutes, then lysed by addition of an equivalent volume of the Celltiter-Glo Reagent. The plate was mixed for 10 minutes on a plate shaker to lyse the cells. The plates were read on a Tecan M1000 using Luminescence protocol modified to read 0.1 s per well. The luminescence reading assesses the ATP content, which correlates directly with cell number such that the reading as a function of compound concentration was used to determine the IC50 value.

Compound: N#C[C@@H]1CCN(C(=O)c2cccc(-c3cnc4[nH]c(-c5ccccc5)cc4c3)n2)C1 [Compound P-0122, (3R)-1-[6-(2-phenyl-1H-pyrrolo[2,3-b]pyridin-5-yl)pyridine-2-carbonyl]pyrrolidine-3-carbonitrile]
- IC50 (FLT3-D835Y): 0.0001 to 10 µM
- IC50 [1]: 0.0001 to 10 µM

Compound: CC(C)(C#N)NC(=O)c1cccc(-c2cnc3[nH]c(-c4cnn(CCN5CCOCC5)c4)cc3c2)n1 [Compound P-0174, N-(1-cyano-1-methyl-ethyl)-6-[2-[1-(2-morpholinoethyl)pyrazol-4-yl]-1H-pyrrolo[2,3-b]pyridin-5-yl]pyridine-2-carboxamide]
- IC50 (FLT3-D835Y): 0.0001 to 10 µM
- IC50 [1]: 0.0001 to 10 µM

Compound: O=C(NC1(C(F)(F)F)CC1)c1cccc(-c2cnc3[nH]c(-c4ccccc4)cc3c2)n1 [Compound P-0156, 6-(2-phenyl-1H-pyrrolo[2,3-b]pyridin-5-yl)-N-[1-(trifluoromethyl)cyclopropyl]pyridine-2-carboxamide]
- IC50 (FLT3-D835Y): 0.0001 to 10 µM
- IC50 [1]: 0.0001 to 10 µM

Compound: CC(C)(C#N)NC(=O)c1cccc(-c2cnc3[nH]c(-c4cnn(C5CCNCC5)c4)cc3c2)n1 [Compound P-0187, N-(1-cyano-1-methyl-ethyl)-6-[2-[1-(4-piperidyl)pyrazol-4-yl]-1H-pyrrolo[2,3-b]pyridin-5-yl]pyridine-2-carboxamide]
- IC50 (FLT3-D835Y): 0.0001 to 10 µM
- IC50 [1]: 0.0001 to 10 µM

Compound: CC(C)(C#N)NC(=O)c1cccc(-c2cnc3[nH]c(C4=CCNCC4)cc3c2)n1 [Compound P-0182, N-(1-cyano-1-methyl-ethyl)-6-[2-(1,2,3,6-tetrahydropyridin-4-yl)-1H-pyrrolo[2,3-b]pyridin-5-yl]pyridine-2-carboxamide]
- IC50 (FLT3-D835Y): 0.0001 to 10 µM
- IC50 [1]: 0.0001 to 10 µM

Compound: CC1(C)CC=C(c2cc3cc(-c4cccc(C(=O)N5CCC(C#N)C5)n4)cnc3[nH]2)CC1 (stereo not shown) [Compound P-0131, 1-[6-[2-(4,4-dimethylcyclohexen-1-yl)-1H-pyrrolo[2,3-b]pyridin-5-yl]pyridine-2-carbonyl]pyrrolidine-3-carbonitrile]
- IC50 (FLT3-D835Y): 0.0001 to 10 µM
- IC50 [1]: 0.0001 to 10 µM

Compound: CC(C)(C#N)NC(=O)c1cccc(-c2cnc3[nH]c(C4=CCN(S(=O)(=O)C5CC5)CC4)cc3c2)n1 [Compound P-0188, N-(1-cyano-1-methyl-ethyl)-6-[2-(1-cyclopropylsulfonyl-3,6-dihydro-2H-pyridin-4-yl)-1H-pyrrolo[2,3-b]pyridin-5-yl]pyridine-2-carboxamide]
- IC50 (FLT3-D835Y): 0.0001 to 10 µM
- IC50 [1]: 0.0001 to 10 µM

Compound: N#CC1CCN(C(=O)c2cccc(-c3cnc4[nH]c(C5=CCOCC5)cc4c3)n2)C1 (stereo not shown) [Compound P-0132, 1-[6-[2-(3,6-dihydro-2H-pyran-4-yl)-1H-pyrrolo[2,3-b]pyridin-5-yl]pyridine-2-carbonyl]pyrrolidine-3-carbonitrile]
- IC50 (FLT3-D835Y): 0.0001 to 10 µM
- IC50 [1]: 0.0001 to 10 µM

Compound: CC(C)(C#N)CNC(=O)c1cccc(-c2cnc3[nH]c(-c4ccc(F)cc4)cc3c2)n1 [Compound P-0144, N-(2-cyano-2-methyl-propyl)-6-[2-(4-fluorophenyl)-1H-pyrrolo[2,3-b]pyridin-5-yl]pyridine-2-carboxamide]
- IC50 (FLT3-D835Y): 0.0001 to 10 µM
- IC50 [1]: 0.0001 to 10 µM

Compound: CC(C)(C#N)NC(=O)c1cccc(-c2cnc3[nH]c(-c4ccc(F)cc4)cc3c2)n1 [Compound P-0145, N-(1-cyano-1-methyl-ethyl)-6-[2-(4-fluorophenyl)-1H-pyrrolo[2,3-b]pyridin-5-yl]pyridine-2-carboxamide]
- IC50 (FLT3-D835Y): 0.0001 to 10 µM
- IC50 [1]: 0.0001 to 10 µM

Compound: N#CC1(NC(=O)c2cccc(-c3cnc4[nH]c(-c5ccccc5)cc4c3)n2)CCCC1 [Compound P-0146, N-(1-cyanocyclopentyl)-6-(2-phenyl-1H-pyrrolo[2,3-b]pyridin-5-yl)pyridine-2-carboxamide]
- IC50 (FLT3-D835Y): 0.0001 to 10 µM
- IC50 [1]: 0.0001 to 10 µM

Compound: CC(C)(C#N)CNC(=O)c1cccc(-c2cnc3[nH]c(C4=CCN(C(=O)C5CC5)CC4)cc3c2)n1 [Compound P-0162, N-(2-cyano-2-methyl-propyl)-6-[2-[1-(cyclopropanecarbonyl)-3,6-dihydro-2H-pyridin-4-yl]-1H-pyrrolo[2,3-b]pyridin-5-yl]pyridine-2-carboxamide]
- IC50 (FLT3-D835Y): 0.0001 to 10 µM
- IC50 [1]: 0.0001 to 10 µM

Compound: CC(C)(C#N)CNC(=O)c1cccc(-c2cnc3[nH]c(C4=CC[S+]([O-])CC4)cc3c2)n1 (stereo not shown) [Compound P-0161, N-(2-cyano-2-methyl-propyl)-6-[2-(1-oxo-3,6-dihydro-2H-thiopyran-4-yl)-1H-pyrrolo[2,3-b]pyridin-5-yl]pyridine-2-carboxamide]
- IC50 (FLT3-D835Y): 0.0001 to 10 µM
- IC50 [1]: 0.0001 to 10 µM

Compound: N#CC1CCN(C(=O)c2cccc(-c3cnc4[nH]c(C5=CCN(C(=O)C6CC6)C5)cc4c3)n2)C1 (stereo not shown) [Compound P-0136, 1-[6-[2-[1-(cyclopropanecarbonyl)-2,5-dihydropyrrol-3-yl]-1H-pyrrolo[2,3-b]pyridin-5-yl]pyridine-2-carbonyl]pyrrolidine-3-carbonitrile]
- IC50 (FLT3-D835Y): 0.0001 to 10 µM
- IC50 [1]: 0.0001 to 10 µM

Compound: CC(C)(C#N)CNC(=O)c1cccc(-c2cnc3[nH]c(C4=CCCCC4)cc3c2)n1 [Compound P-0123, N-(2-cyano-2-methyl-propyl)-6-[2-(cyclohexen-1-yl)-1H-pyrrolo[2,3-b]pyridin-5-yl]pyridine-2-carboxamide]
- IC50 (FLT3-D835Y): 0.0001 to 10 µM
- IC50 [1]: 0.0001 to 10 µM

Compound: CC(C)(C#N)CNC(=O)c1cccc(-c2cnc3[nH]c(-c4ccccc4)c(Cl)c3c2)n1 [Compound P-0138, 6-(3-chloro-2-phenyl-1H-pyrrolo[2,3-b]pyridin-5-yl)-N-(2-cyano-2-methyl-propyl)pyridine-2-carboxamide]
- IC50 (FLT3-D835Y): 0.0001 to 10 µM
- IC50 [1]: 0.0001 to 10 µM

Compound: CC(C)(C#N)NC(=O)c1cccc(-c2cnc3[nH]c(-c4cnn(C5CC5)c4)cc3c2)n1 [Compound P-0165, N-(1-cyano-1-methyl-ethyl)-6-[2-(1-cyclopropylpyrazol-4-yl)-1H-pyrrolo[2,3-b]pyridin-5-yl]pyridine-2-carboxamide]
- IC50 (FLT3-D835Y): 0.0001 to 10 µM
- IC50 [1]: 0.0001 to 10 µM

Compound: CC(C)(C#N)CNC(=O)c1cccc(-c2cnc3[nH]c(-c4cnn(CC(F)(F)F)c4)cc3c2)n1 [Compound P-0113, N-(2-cyano-2-methyl-propyl)-6-[2-[1-(2,2,2-trifluoroethyl)pyrazol-4-yl]-1H-pyrrolo[2,3-b]pyridin-5-yl]pyridine-2-carboxamide]
- IC50 (FLT3-D835Y): 0.0001 to 10 µM
- IC50 [1]: 0.0001 to 10 µM

Compound: CC(C)(C#N)NC(=O)c1cccc(-c2cnc3[nH]c(C4=CCN(C(=O)C5CC5)CC4)cc3c2)n1 [Compound P-0181, N-(1-cyano-1-methyl-ethyl)-6-[2-[1-(cyclopropanecarbonyl)-3,6-dihydro-2H-pyridin-4-yl]-1H-pyrrolo[2,3-b]pyridin-5-yl]pyridine-2-carboxamide]
- IC50 (FLT3-D835Y): 0.0001 to 10 µM
- IC50 [1]: 0.0001 to 10 µM

Compound: CC(C)(C#N)CNC(=O)c1cccc(-c2cnc3[nH]c(-c4cnn(C(F)F)c4)cc3c2)n1 [Compound P-0153, N-(2-cyano-2-methyl-propyl)-6-[2-[1-(difluoromethyl)pyrazol-4-yl]-1H-pyrrolo[2,3-b]pyridin-5-yl]pyridine-2-carboxamide]
- IC50 (FLT3-D835Y): 0.0001 to 10 µM
- IC50 [1]: 0.0001 to 10 µM
